Laboratory results reported in patent US20250282771A1, “TETRAHYDROISOQUINOLINE HETEROBIFUNCTIONAL BCL-XL DEGRADERS” (Treeline Biosciences, Inc., priority 2022, published 2025).

Target: T1, N-terminal HiBiT tagged BCL-XL (Homo sapiens, UniProt Q07817)
T1 construct: expressed in transfected cells; host or cells: HT-1080 (ATCC CCL-121) cells stably transduced with lentivirus pLV-UBC-N-HiBiT-BCL-XL-PGK-puro
Experiment: HiBiT based degradation assay
Assay type: cell-based
Settings: HT1080 cells expressing N-terminal HiBiT tagged BCL-XL, BCL-XL level normalized with DMSO control
Description: Human BCL-XL protein coding open reading frame fused with N-terminal HiBiT coding sequence was synthesized from Integrated DNA Technologies (IDT). Next, N-HiBiT-BCL-XL sequence was cloned into pLV-UBC-PGK-Puro, a lentivirus plasmid purchased from Vectorbuilder, to generate pLV-UBC-N-HiBiT-BCL-XL-PGK-puro. Lentiviral particles were generated from Lenti-X™ 293T cells (Clontech) by co-transfection of pLV-UBC-N-HiBiT-BCL-XL-PGK-puro plasmids and lentiviral packaging plasmid mix (Cellecta). HT-1080 [HT1080](ATCC CCL-121) cells were infected with the lentivirus, and HT1080 cells stably integrated with the lentiviral vectors were established by incubation with […] puromycin (Thermofisher).
HT1080 cells expressing N-terminal HiBiT tagged BCL-XL were dispensed into a 384-well plate pre-spotted with compounds at varying concentrations. Three thousand cells were seeded into each well in 40 μL of RPMI 1640 media. […] After incubation, luminescence was read on a PHERAstar FSX Plate Reader (BMG). BCL-XL degradation at each indicated concentration was normalized with the DMSO control. The BCL-XL degradation curves were plotted using a four-parameter logistic model. For compounds displaying hook effects, the curve fitting was performed using the bottom point of the hook curves (i.e., the point of Ymin) as the bottom plateau to calculate EC50.

T1 sequence (Q07817 whole entry): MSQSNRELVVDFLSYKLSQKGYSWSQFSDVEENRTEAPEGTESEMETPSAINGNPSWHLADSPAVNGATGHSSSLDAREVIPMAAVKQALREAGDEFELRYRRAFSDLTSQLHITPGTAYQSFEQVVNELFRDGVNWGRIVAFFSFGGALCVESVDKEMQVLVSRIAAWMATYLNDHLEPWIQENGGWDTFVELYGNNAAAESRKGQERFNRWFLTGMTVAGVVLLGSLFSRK

SMILES | Ymin (24 h) | Ymin (6 h)
Cc1c(O[C@H](C)CCC2CCN(CC(=O)N3CCN(c4cc5c(cc4F)C(=O)N(C4CCC(=O)NC4=O)C5=O)CC3)CC2)cccc1-c1ccc(N2CCc3cccc(C(=O)Nc4nc5ccccc5s4)c3C2)nc1C(=O)O (stereo partly drawn) [Compound 128b, 6-[8-(1,3-benzothiazol-2-ylcarbamoyl)-3,4-dihydro-1H-isoquinolin-2-yl]-3-[3-[(1R)-3-[1-[2-[4-[2-(2,6-dioxo-3-piperidyl)-6-fluoro-1,3-dioxo-isoindolin-5-yl]piperazin-1-yl]-2-oxo-ethyl]-4-piperidyl]-1-methyl-propoxy]-2-methyl-phenyl]pyridine-2-carboxylic acid] | B (50% ≤ Ymin < 70%) | –
Cc1c(OCCCCCCN2CCN(c3cc4c(cc3F)C(=O)N(C3CCC(=O)NC3=O)C4=O)CC2)cccc1-c1ccc(N2CCc3cccc(C(=O)Nc4nc5ccccc5s4)c3C2)nc1C(=O)O (stereo not shown) [Compound 115] | B (50% ≤ Ymin < 70%) | C (Ymin ≥ 70%)
Cc1c(Oc2ccc(CCCN3CCN(c4cc5c(cc4F)C(=O)N(C4CCC(=O)NC4=O)C5=O)CC3)cc2)cccc1-c1ccc(N2CCc3cccc(C(=O)Nc4nc5ccccc5s4)c3C2)nc1C(=O)O (stereo not shown) [Compound 110, 6-[8-(1,3-Benzothiazol-2-ylcarbamoyl)-3,4-dihydro-1H-isoquinolin-2-yl]-3-[3-[4-[3-[4-[2-(2,6-dioxo-3-piperidyl)-6-fluoro-1,3-dioxo-isoindolin-5-yl]piperazin-1-yl]propyl]phenoxy]-2-methyl-phenyl]pyridine-2-carboxylic acid] | B (50% ≤ Ymin < 70%) | B (50% ≤ Ymin < 70%)
Cc1c(OCCC2CCN(CCN3CCN(c4cc5c(cc4F)C(=O)N(C4CCC(=O)NC4=O)C5=O)CC3)CC2)cccc1-c1ccc(N2CCc3cccc(C(=O)Nc4nc5ccccc5s4)c3C2)nc1C(=O)O (stereo not shown) [Compound 116, 6-[8-(1,3-benzothiazol-2-ylcarbamoyl)-3,4-dihydro-1H-isoquinolin-2-yl]-3-[3-[2-[1-[2-[4-[2-(2,6-dioxo-3-piperidyl)-6-fluoro-1,3-dioxo-isoindolin-5-yl]piperazin-1-yl]ethyl]-4-piperidyl]ethoxy]-2-methyl-phenyl]pyridine-2-carboxylic acid] | A (Ymin < 50%) | –
Cc1c(OCCC2CCN(CC3CCN(c4cc5c(cc4F)C(=O)N(C4CCC(=O)NC4=O)C5=O)CC3)CC2)cccc1-c1ccc(N2CCc3cccc(C(=O)Nc4nc5ccccc5s4)c3C2)nc1C(=O)O (stereo not shown) [Compound 145, 6-[8-(1,3-benzothiazol-2-ylcarbamoyl)-3,4-dihydro-1H-isoquinolin-2-yl]-3-[3-[2-[1-[[1-[2-(2,6-dioxo-3-piperidyl)-6-fluoro-1,3-dioxo-isoindolin-5-yl]-4-piperidyl]methyl]-4-piperidyl]ethoxy]-2-methyl-phenyl]pyridine-2-carboxylic acid] | A (Ymin < 50%) | –
Cc1c(OCCCCCCCCN2CCN(c3cc4c(cc3F)C(=O)N(C3CCC(=O)NC3=O)C4=O)CC2)cccc1-c1ccc(N2CCc3cccc(C(=O)Nc4nc5ccccc5s4)c3C2)nc1C(=O)O (stereo not shown) [Compound 108] | – | B (50% ≤ Ymin < 70%)
Cc1c(OCCC[C@H]2CCN(CC(=O)N3CCN(c4cc5c(cc4F)C(=O)N(C4CCC(=O)NC4=O)C5=O)CC3)C2)cccc1-c1ccc(N2CCc3cccc(C(=O)Nc4nc5ccccc5s4)c3C2)nc1C(=O)O (stereo partly drawn) [Compound 122a, 6-(8-(benzo[d]thiazol-2-ylcarbamoyl)-3,4-dihydroisoquinolin-2(1H)-yl)-3-(3-(3-((3S)-1-(2-(4-(2-(2,6-dioxopiperidin-3-yl)-6-fluoro-1,3-dioxoisoindolin-5-yl)piperazin-1-yl)-2-oxoethyl)pyrrolidin-3-yl)propoxy)-2-methylphenyl)picolinic acid] | B (50% ≤ Ymin < 70%) | –
Cc1c(OCC(F)(F)CC2CCN(CC(=O)N3CCN(c4cc5c(cc4F)C(=O)N(C4CCC(=O)NC4=O)C5=O)CC3)CC2)cccc1-c1ccc(N2CCc3cccc(C(=O)Nc4nc5ccccc5s4)c3C2)nc1C(=O)O (stereo not shown) [Compound 127, 6-(8-(benzo[d]thiazol-2-ylcarbamoyl)-3,4-dihydroisoquinolin-2(1H)-yl)-3-(3-(3-(1-(2-(4-(2-(2,6-dioxopiperidin-3-yl)-6-fluoro-1,3-dioxoisoindolin-5-yl)piperazin-1-yl)-2-oxoethyl)piperidin-4-yl)-2,2-difluoropropoxy)-2-methylphenyl)picolinic acid] | B (50% ≤ Ymin < 70%) | –
Cc1c(O[C@H]2CC[C@H](CCC(=O)N3CCN(c4cc5c(cc4F)C(=O)N(C4CCC(=O)NC4=O)C5=O)CC3)CC2)cccc1-c1ccc(N2CCc3cccc(C(=O)Nc4nc5ccccc5s4)c3C2)nc1C(=O)O (stereo partly shown) [Compound 111a, 6-(8-(benzo[d]thiazol-2-ylcarbamoyl)-3,4-dihydroisoquinolin-2(1H)-yl)-3-(3-(((1r,4r)-4-(3-(4-(2-(2,6-dioxopiperidin-3-yl)-6-fluoro-1,3-dioxoisoindolin-5-yl)piperazin-1-yl)-3-oxopropyl)cyclohexyl)oxy)-2-methylphenyl)picolinic acid] | B (50% ≤ Ymin < 70%) | B (50% ≤ Ymin < 70%)
Cc1c(O[C@H]2CC[C@H](CCCN3CCN(c4cc5c(cc4F)C(=O)N(C4CCC(=O)NC4=O)C5=O)CC3)CC2)cccc1-c1ccc(N2CCc3cccc(C(=O)Nc4nc5ccccc5s4)c3C2)nc1C(=O)O (stereo partly shown) [Compound 112a, 6-(8-(benzo[d]thiazol-2-ylcarbamoyl)-3,4-dihydroisoquinolin-2(1H)-yl)-3-(3-(((1s,4r)-4-(3-(4-(2-(2,6-dioxopiperidin-3-yl)-6-fluoro-1,3-dioxoisoindolin-5-yl)piperazin-1-yl)propyl)cyclohexyl)oxy)-2-methylphenyl)picolinic acid] | C (Ymin ≥ 70%) | B (50% ≤ Ymin < 70%)
Cc1c(Oc2ccc(CCCC(=O)N3CCN(c4cc5c(cc4F)C(=O)N(C4CCC(=O)NC4=O)C5=O)CC3)cc2)cccc1-c1ccc(N2CCc3cccc(C(=O)Nc4nc5ccccc5s4)c3C2)nc1C(=O)O (stereo not shown) [Compound 119, 6-(8-(benzo[d]thiazol-2-ylcarbamoyl)-3,4-dihydroisoquinolin-2(1H)-yl)-3-(3-(4-(4-(4-(2-(2,6-dioxopiperidin-3-yl)-6-fluoro-1,3-dioxoisoindolin-5-yl)piperazin-1-yl)-4-oxobutyl)phenoxy)-2-methylphenyl)picolinic acid] | B (50% ≤ Ymin < 70%) | C (Ymin ≥ 70%)
Cc1c(O[C@@H](C)CCC2CCN(CC(=O)N3CCN(c4cc5c(cc4F)C(=O)N(C4CCC(=O)NC4=O)C5=O)CC3)CC2)cccc1-c1ccc(N2CCc3cccc(C(=O)Nc4nc5ccccc5s4)c3C2)nc1C(=O)O (stereo partly drawn) [Compound 128a, 6-(8-(benzo[d]thiazol-2-ylcarbamoyl)-3,4-dihydroisoquinolin-2(1H)-yl)-3-(3-(((2S)-4-(1-(2-(4-(2-(2,6-dioxopiperidin-3-yl)-6-fluoro-1,3-dioxoisoindolin-5-yl)piperazin-1-yl)-2-oxoethyl)piperidin-4-yl)butan-2-yl)oxy)-2-methylphenyl)picolinic acid] | B (50% ≤ Ymin < 70%) | C (Ymin ≥ 70%)
Cc1c(OCCCC2CCN([C@@H](C)C(=O)N3CCN(c4cc5c(cc4F)C(=O)N(C4CCC(=O)NC4=O)C5=O)CC3)CC2)cccc1-c1ccc(N2CCc3cccc(C(=O)Nc4nc5ccccc5s4)c3C2)nc1C(=O)O (stereo partly drawn) [Compound 124a, 6-(8-(benzo[d]thiazol-2-ylcarbamoyl)-3,4-dihydroisoquinolin-2(1H)-yl)-3-(3-(3-(1-((2S)-1-(4-(2-(2,6-dioxopiperidin-3-yl)-6-fluoro-1,3-dioxoisoindolin-5-yl)piperazin-1-yl)-1-oxopropan-2-yl)piperidin-4-yl)propoxy)-2-methylphenyl)picolinic acid] | B (50% ≤ Ymin < 70%) | –
Cc1c(OCC2CC3(CCN(CC(=O)N4CCN(c5cc6c(cc5F)C(=O)N(C5CCC(=O)NC5=O)C6=O)CC4)CC3)C2)cccc1-c1ccc(N2CCc3cccc(C(=O)Nc4nc5ccccc5s4)c3C2)nc1C(=O)O (stereo not shown) [Compound 113, 6-[8-(1,3-benzothiazol-2-ylcarbamoyl)-3,4-dihydro-1H-isoquinolin-2-yl]-3-[3-[[7-[2-[4-[2-(2,6-dioxo-3-piperidyl)-6-fluoro-1,3-dioxo-isoindolin-5-yl]piperazin-1-yl]-2-oxo-ethyl]-7-azaspiro[3.5]nonan-2-yl]methoxy]-2-methyl-phenyl]pyridine-2-carboxylic acid] | B (50% ≤ Ymin < 70%) | B (50% ≤ Ymin < 70%)
Cc1c(OCCC2CCN(CC(=O)N3CCN(c4cc5c(cc4F)C(=O)N(C4CCC(=O)NC4=O)C5=O)CC3)CC2)cccc1-c1ccc(N2CCc3cccc(C(=O)Nc4nc5ccccc5s4)c3C2)nc1C(=O)O (stereo not shown) [Compound 106, 6-[8-(1,3-Benzothiazol-2-ylcarbamoyl)-3,4-dihydro-1H-isoquinolin-2-yl]-3-[3-[2-[1-[2-[4-[2-(2,6-dioxo-3-piperidyl)-6-fluoro-1,3-dioxo-isoindolin-5-yl]piperazin-1-yl]-2-oxo-ethyl]-4-piperidyl]ethoxy]-2-methyl-phenyl]pyridine-2-carboxylic acid] | – | B (50% ≤ Ymin < 70%)
